Holding throughout (format): cell-based
Data set [1] can be described thus: Cell viability measurement (MTS), Vero cells. The following applies: monkey. How it is done:
(§1) Experimental Example 3: Cell Viability Measurement
(§2) Vero cell line (VERO01WCB-1201, Ministry of Food and Drug Safety, Republic of Korea), Calu-3 cell line (KCLB #30055, Korea Cell Line Bank (KCLB), Republic of Korea), CellTiter 96® AQueous One Solution Cell Proliferation Assay kit (Promega, cat. #G3582), and Infinite M200 microplate reader (Tecan).
Vero cells were cultured at 37 °C and 5% CO2 in DMEM medium supplemented with 10% fetal bovine serum, 100 units/mL penicillin, and 100 μg/mL streptomycin.
(§3) Vero cells or Calu-3 cells were seeded in 96-well microplates and cultured for 24 hours until the cell confluency reached 20%. After the incubation, compounds were treated in DMSO at concentrations (1, 3, and 10 μM) to reach 0.5% v/v in each well, and reacted at 37 °C for 48 hours. Into each well of the incubated 96-well microplate, 3-(4,5-dimethylthiazol-2-yl)-5-(3-carboxymethoxyphenyl)-2-(4-sulfophenyl)-2H-tetrazolium salt (MTS) assay solution [CellTiter 96® AQueous One Solution Cell Proliferation Assay kit (Promega)] mixed with DMEM medium at a ratio of 1:5, was dispensed at 100 μL/well and incubated at 37 °C for 1 hour. The 490 nm and 690 nm absorbance was then measured using an Infinite M200 instrument.
(§4) The cell viability (also, referred to as cell survival rate) (%) by compound treatment was calculated using the following analysis method. The 690 nm background absorbance value was subtracted from the measured 490 nm absorbance value. Then, to obtain the cell viability of each test group, the viability of the DMSO-treated group that was not treated with the compound was set to 100% and then the relative viability 1 of each compound was calculated. Two to six repeated tests were performed to obtain the results, and the mean values of the results were categorized into the following ranges and shown in Table 5 below (A: 80% survived, B: 50-80% survived, N/A: not tested)

A short description of data set [2]: Cell viability measurement (MTS), Calu-3 cells. The settings on record: human. How it is done: as §1, §2
Calu-3 cells were cultured at 37 °C and 5% CO2 in MEM medium supplemented with 10% fetal bovine serum, 2.2 g/L sodium bicarbonate, 1% 100 units/mL penicillin, and 100 μg/mL streptomycin.
as §3, §4

Data set [3] has as its system Severe Acute Respiratory Syndrome Coronavirus Type 2. Kind of data set: microbe, parasite or virus in culture. The settings on record: Calu-3, 10 uM, read-out: Virus replication inhibition efficacy.
[4] abbreviates: virus strain NCCP-43344, 48 hours.
The mark [5] stands for this setting: virus strain NCCP-43388, 48 hours.

Read-outs that look alike come from different tables or passages of the source.

For orientation: viability means a per cent measure of how many cells are alive, often set against a control. A lower viability goes with more harm to the cells. Consider `Fc1cc2nc(-c3cccc(Nc4ccc(-c5ccccc5)nn4)c3)[nH]c2cc1Br` [Example 4, N-[3-(6-bromo-5-fluoro-1H-benzo[d]imidazol-2-yl)phenyl]-6-phenylpyridazin-3-amine], for which, in data set [1], the viability at 48 h, 1 µM was more than 80%; the viability at 48 h, 3 µM is more than 80%; the viability at 48 h, 10 µM fell in the range of 50 to 80%.
In data set [2], `Cc1cscc1-c1cnc(Nc2cccc(-c3nc4ccccc4[nH]3)c2)nc1` [Example 43, N-(3-(1H-benzo[d]imidazol-2-yl)phenyl)-5-(4-methylthiophen-3-yl)pyrimidin-2-amine] registered a viability at 48 h, 1 µM of more than 80% and a viability at 48 h, 3 µM of 50 to 80%. Also, in data set [1], the viability at 48 h, 1 µM is more than 80% and the viability at 48 h, 10 µM is more than 80%.
As for `COC(=O)c1ccc2nc(-c3cccc(Nc4ccc(-c5cccnn5)cc4)c3)[nH]c2c1` [Example 61, methyl 2-(3-((4-(pyridazin-3-yl)phenyl)amino)phenyl)-1H-benzo[d]imidazol-6-carboxylate], the viability at 48 h, 1 µM in data set [1] was more than 80%.
The inhibition is the relative decrease from the control value, in per cent. `Clc1cc2nc(-c3cccc(Nc4ccc(-c5ccccc5)cn4)c3)[nH]c2cc1Cl` [Example 13, N-[3-(5,6-dichloro-1H-benzo[d]imidazol-2-yl)phenyl]-5-phenylpyridin-2-amine]: the inhibition at 10 µM in data set [3] (setting [4]) is more than 60%. Moreover, in data set [1], the viability at 48 h, 1 µM is more than 80%; the viability at 48 h, 3 µM was more than 80%; the viability at 48 h, 10 µM was in the range of 50 to 80%.
As to `c1cc(Nc2ccc(-c3cncnc3)cc2)cc(-c2nc3ccccc3[nH]2)c1` [Example 30, 3-(1H-benzo[d]imidazol-2-yl)-N-(4-(pyrimidin-5-yl)phenyl)aniline], the inhibition at 10 µM in data set [3] (setting [5]) is more than 60%. Further, in data set [2], the viability at 48 h, 1 µM lay within 50 to 80%. In addition, in data set [1], the viability at 48 h, 1 µM was more than 80% and the viability at 48 h, 3 µM lay within 50 to 80%.
For `c1ccc(-c2cnc(Nc3cccc(-c4nc5ccccc5[nH]4)c3)nc2)nc1` [Example 44, N-(3-(1H-benzo[d]imidazol-2-yl)phenyl)-5-(pyridin-2-yl)pyrimidin-2-amine], the inhibition at 10 µM in data set [3] (setting [5]) was more than 60%. Besides, in data set [2], the viability at 48 h, 1 µM was more than 80% and the viability at 48 h, 3 µM lay in the range of 50 to 80%.
In data set [2], `FC(F)(F)c1ccc2nc(-c3cccc(Nc4ccc(-c5ccccn5)cn4)c3)[nH]c2c1` [Example 57, N-{3-[6-(trifluoromethyl)-1H-benzo[d]imidazol-2-yl]phenyl}-[2,3′-bipyridin]-6′-amine] yielded a viability at 48 h, 1 µM of 50 to 80%. In data set [1], this compound came in with a viability at 48 h, 1 µM of more than 80%; a viability at 48 h, 3 µM of more than 80%; a viability at 48 h, 10 µM of 50 to 80%.
With `FC(F)(F)Oc1ccc2nc(-c3cccc(Nc4ccc(-c5ccccc5)nn4)c3)[nH]c2c1` [Example 6, 6-phenyl-N-(3-(6-(trifluoromethoxy)-1H-benzo[d]imidazol-2-yl)phenyl)pyridazin-3-amine], in data set [1], the viability at 48 h, 1 µM is more than 80% and the viability at 48 h, 3 µM is 50 to 80%.
With `FC(F)(F)c1ccc2nc(-c3cccc(Nc4ccc(-c5ccccc5)nn4)c3)[nH]c2c1` [Example 1, 6-phenyl-N-(3-(6-(trifluoromethyl)-1H-benzo[d]imidazol-2-yl)phenyl)pyridazin-3-amine], in data set [1], the viability at 48 h, 1 µM is more than 80% and the viability at 48 h, 3 µM was more than 80%.
Take `c1cncc(-c2ccc(Nc3cccc(-c4nc5ccccc5[nH]4)c3)cc2)c1` [Example 31, N-[3-(1H-benzo[d]imidazol-2-yl)phenyl]-4-(pyridin-3-yl)aniline]: in data set [2], the viability at 48 h, 1 µM fell in the range of 50 to 80%. In data set [1], this compound registered a viability at 48 h, 1 µM of more than 80% and a viability at 48 h, 10 µM of 50 to 80%.
For the compound `FC(F)(F)c1ccc2nc(-c3cccc(Nc4ncc(-c5cccnn5)cn4)c3)[nH]c2c1` [Example 52, 5-(pyridazin-3-yl)-N-(3-(6-(trifluoromethyl)-1H-benzo[d]imidazol-2-yl)phenyl)pyrimidin-2-amine], in data set [2], the viability at 48 h, 1 µM is 50 to 80% and the viability at 48 h, 3 µM fell in the range of 50 to 80%. The same compound yielded a viability at 48 h, 10 µM in data set [2] (10 μM) of 50 to 80%. Further, in data set [1], the viability at 48 h, 1 µM was more than 80%; the viability at 48 h, 3 µM was more than 80%; the viability at 48 h, 10 µM was more than 80%.
As for `c1cc(Nc2ccc(-c3cccnn3)cn2)cc(-c2nc3ccccc3[nH]2)c1` [Example 56, N-[3-(1H-benzo[d]imidazol-2-yl)phenyl]-5-(pyridazin-3-yl)pyridin-2-amine], in data set [2], the viability at 48 h, 1 µM was more than 80% and the viability at 48 h, 3 µM was in the range of 50 to 80%. In data set [1], this compound returned a viability at 48 h, 1 µM of more than 80% and a viability at 48 h, 10 µM of more than 80%.
Consider `c1ccc(-c2ccc(Nc3cccc(-c4nc5ccccc5[nH]4)c3)nc2)nc1` [Example 59, N-[3-(1H-benzo[d]imidazol-2-yl)phenyl]-[2,3′-bipyridin]-6′-amine], for which, in data set [2], the viability at 48 h, 1 µM is more than 80% and the viability at 48 h, 3 µM lay within 50 to 80%. In data set [1], this compound yielded a viability at 48 h, 1 µM of more than 80%.
Take `Fc1ccc2nc(-c3cccc(Nc4ccc(-c5ccncn5)cn4)c3)[nH]c2c1` [Example 72, N-(3-(6-fluoro-1H-benzo[d]imidazol-2-yl)phenyl)-5-(pyrimidin-4-yl)pyridin-2-amine]: the viability at 48 h, 3 µM in data set [1] is more than 80%.
For `c1cc(Nc2ccc(-c3cnccn3)cc2)cc(-c2nc3ccccc3[nH]2)c1` [Example 32, 3-(1H-benzo[d]imidazol-2-yl)-N-(4-(pyrazin-2-yl)phenyl)aniline], the inhibition at 10 µM in data set [3] (setting [5]) is more than 60%. For the same compound, in data set [2], the viability at 48 h, 1 µM is more than 80% and the viability at 48 h, 3 µM was 50 to 80%. In data set [1], the viability at 48 h, 1 µM was more than 80%; the viability at 48 h, 3 µM was more than 80%; the viability at 48 h, 10 µM was in the range of 50 to 80%.
On to `Fc1ccc2nc(-c3cccc(Nc4ncc(-c5ccccn5)cn4)c3)[nH]c2c1` [Example 45, N-[3-(6-fluoro-1H-benzo[d]imidazol-2-yl)phenyl]-5-(pyridin-2-yl)pyrimidin-2-amine], for which the inhibition at 10 µM in data set [3] (setting [5]) is 30 to 60%. In addition, the viability at 48 h, 1 µM in data set [2] lay in the range of 50 to 80%. In data set [1], the viability at 48 h, 3 µM was more than 80% and the viability at 48 h, 10 µM is 50 to 80%.
In the case of `CC(C)(C)c1ccc2nc(-c3cccc(Nc4ccc(-c5ccccc5)nn4)c3)[nH]c2c1` [Example 3, N-[3-(6-tert-butyl-1H-benzo[d]imidazol-2-yl)phenyl]-6-phenylpyridazin-3-amine], in data set [1], the viability at 48 h, 1 µM was more than 80% and the viability at 48 h, 3 µM fell in the range of 50 to 80%.
Turning to `FC(F)(F)c1ccc2nc(-c3cccc(Nc4ccc(-c5cnccn5)cc4)c3)[nH]c2c1` [Example 29, N-[4-(pyrazin-2-yl)phenyl]-3-[6-(trifluoromethyl)-1H-benzo[d]imidazol-2-yl]aniline], the viability at 48 h, 1 µM in data set [1] was more than 80%.
The same measure, in the same setting: the value for `FC(F)(F)c1ccc2nc(-c3cccc(Nc4ncc(-c5ccccc5)cn4)c3)[nH]c2c1` [Example 14, 5-phenyl-N-(3-(6-(trifluoromethyl)-1H-benzo[d]imidazol-2-yl)phenyl)pyrimidin-2-amine] was more than 80%.
Turning to `Fc1cc2nc(-c3cccc(Nc4cnc(-c5ccccn5)cn4)c3)[nH]c2cc1F` [Example 298, N-(3-(5,6-difluoro-1H-benzo[d]imidazol-2-yl)phenyl)-5-(pyridin-2-yl)pyrazin-2-amine], in data set [3] (setting [5]), the inhibition at 10 µM lay in the range of 30 to 60%.
Consider `Fc1ccc2nc(-c3cccc(Nc4ccc(-c5cccnn5)cn4)c3)[nH]c2c1` [Example 55], for which, in data set [1], the viability at 48 h, 1 µM was more than 80% and the viability at 48 h, 10 µM fell in the range of 50 to 80%.
The corresponding values for `Fc1cccc(-c2ccc(Nc3cccc(-c4nc5ccc(C(F)(F)F)cc5[nH]4)c3)nc2)c1` [Example 18, 5-(3-fluorophenyl)-N-(3-(6-(trifluoromethyl)-1H-benzo[d]imidazol-2-yl)phenyl)pyridin-2-amine] are more than 80% and 50 to 80%.
As to `Fc1ccc2nc(-c3cccc(Nc4ccc(-c5cccnn5)cc4)c3)[nH]c2c1` [Example 25, 3-(6-fluoro-1H-benzo[d]imidazol-2-yl)-N-(4-(pyridazin-3-yl)phenyl)aniline], the inhibition at 10 µM in data set [3] (setting [4]) is more than 60%. In data set [1], the viability at 48 h, 1 µM was more than 80%; the viability at 48 h, 3 µM is more than 80%; the viability at 48 h, 10 µM was more than 80%.
The compound `Fc1ccc2nc(-c3cccc(Nc4ccc(-c5ccccn5)cn4)c3)[nH]c2c1` [Example 58, N-(3-(6-fluoro-1H-benzo[d]imidazol-2-yl)phenyl)-[2,3′-bipyridine]-6′-amine] displayed a viability at 48 h, 1 µM in data set [2] of 50 to 80%. Moreover, in data set [1], the viability at 48 h, 1 µM was more than 80% and the viability at 48 h, 3 µM was more than 80%.

Values taken from patent US20260364068A1, “ANTIVIRAL USE OF HETEROARYL DERIVATIVE COMPOUND” (UIF (University Industry Foundation), Yonsei University, priority 2022, published 2026).
